Data from patent US20240190858A1, “CRYSTALLINE FORMS, PHARMACEUTICAL COMPOSITIONS AND METHODS OF USE THEREOF” (priority 2022, published 2024).
One block for each compound: values may come before it.

What was measured:
[1] = tested on: MTAP-null OCI-LY19 cell line tumors; experiment: OCI-LY19 MTAP-null xenograft, switch from TNG908 to compound of Formula (I); type: in vivo, mice; settings: 120 mg/kg BID
From the text: The data is shown in FIG. 10A and FIG. 10B as mean±SEM. Regression is defined as final mean tumor volume <30% initial mean tumor volume.

[2] = Oral pharmacokinetics in cynomolgus monkey; type: in vivo, cynomolgous monkeys; settings: 3 mg/kg via oral gavage, n=3
From the text: The dotted lines indicate the HAP1 MTAP-null and MTAP WT GI50s from a 7-day viability assay the compound. The data is presented as mean±SD.

[3] = tested on: MTAP-null NCI-H838 NSCLC CDX; experiment: MTAP-null NCI-H838 NSCLC CDX model, combination with AGI-41998; type: in vivo; settings: AGI-41998 at 10 mg/kg QD, minimum of 28 days
Experimental: Briefly the groups were treated for a minimum of 28 days and tumor-volumes were monitored for the indicated time period.

Compound: Cc1cc(NC(=O)C(=O)N2C[C@@H](C)CC[C@@H]2c2ccc3scnc3c2)cnc1N [TNG908]
tumor response under continuous dosing [1]: appear to have developed resistance

pharmacokinetic properties [2]: good pharmacokinetic properties
Compound: CCc1cc(NC(=O)C(=O)N2C[C@@H](C)CC[C@@H]2c2ccc3sc(C4CCN(C)CC4)nc3c2)cnc1N [compound of Formula (I), N-(6-amino-5-ethylpyridin-3-yl)-2-((2R,5S)-5-methyl-2-(2-(1-methylpiperidin-4-yl)benzo[d]thiazol-5-yl)piperidin-1-yl)-2-oxoacetamide]

Compound: AGI-41998
change in tumor volume [3]: increases in tumor volumes
